According to patent publication US20040014706A1, “Use of carp inhibitors for the treatment of heart diseases” (priority 2000, published 2004):

Key:
CARP mRNA [1] = experiment: CARP mRNA levels in isolated myocytes treated with adrenoceptor agonists and kinase inhibitors; assay type: cell-based; conditions: for reversal of the effects of ISO and PE on CARP mRNA expression: ISO 1 μM, PE 50 μM; for CARP mRNA/GAPDH mRNA: ISO 1 μM (n=9), PE 50 μM (n=11)
Experimental: (§1) Male Wistar rats were treated with isoprenaline (ISO, 2.4 mg/kg/d, Alzet mini pump) for 4 days. Controls were infused with NaCl. […] To gain further insight into the mechanism by which CARP expression is regulated, isolated myocytes were treated with ISO (1 μM) and phenylephrine (PE, 50 μM). For comparison the effects of the alpha-adrenoceptor agonist phenylephrine (PE, 50 μM) were studied.

CARP mRNA [2] = experiment: CARP mRNA expression in left ventricular myocardium of treated rats, Northern blot; assay type: in vivo, Male Wistar rats; conditions: 2.4 mg/kg/d, 4 days
Experimental: as §1

CARP protein [3] = experiment: CARP protein in treated rats, Western blot; assay type: in vivo, Male Wistar rats; conditions: 2.4 mg/kg/d, 4 days
Experimental: as §1

CARP protein [4] = experiment: CARP protein levels in isolated myocytes treated with adrenoceptor agonists; assay type: cell-based; conditions: ISO 1 μM, PE 50 μM, n=4
Experimental: as §1

[5] = Isoprenaline-induced cardiac hypertrophy in rats (heart weight/body weight); assay type: in vivo, Male Wistar rats; conditions: 2.4 mg/kg/d, Alzet mini pump, 4 days; vs NaCl controls
Experimental: as §1

| Structure (SMILES) | reversal of the effects of ISO and PE on CARP mRNA expression (CARP mRNA [1]) | CARP/CSQ (CARP protein level) (CARP protein [4]) | CARP mRNA/GAPDH mRNA (CARP mRNA [1]) | other results |
| --- | --- | --- | --- | --- |
| C[S+]([O-])c1ccc(-c2nc(-c3ccncc3)c(-c3ccc(F)cc3)[nH]2)cc1 (centres unmarked) [SB203580] | not |  |  |  |
| CC(C)NCC(O)c1ccc(O)c(O)c1 (centres unmarked) [ISO, isoprenaline] |  | 161±10 % of control | 148±10 % of control | CARP mRNA/GAPDH mRNA (CARP mRNA [2]; LV myocardium, n=6, NaCl control 1.3±0.12): 3.1±0.5; increase in CARP mRNA expression in left ventricular (LV) myocardium (CARP mRNA [2]; Northern blot, vs NaCl): 140%; increase in CARP protein (CARP protein [3]; Western blot, vs NaCl): 50%; CARP/calsequestrin (CARP protein [3]; n=6, NaCl control 0.41±0.03): 0.61±0.07; increase in heart weight/body weight ratio [5]: 40% |
| CNC[C@H](O)c1cccc(O)c1 [PE, phenylephrine] |  | 172±7 % of control | 178±20 % of control |  |
| N#CC(=C(/N)Sc1ccccc1N)/C(C#N)=C(\N)Sc1ccccc1N [U0126] | completely reversed |  |  |  |
